Assay results as given in ChEMBL document CHEMBL5365457, “Selective HDAC3 Inhibitors with Potent In Vivo Antitumor Efficacy against Triple-Negative Breast Cancer” (J Med Chem, 2023).
pIC50: −log10 of the molar value. The source made the active and inactive calls. No cut-off for these calls is given here.

How the values were obtained:
[1] = Toxicity in BALB/c mouse implanted with mouse 4T1 cells assessed as spleen damage at 5 to 15 mg/kg, ip measured after 21 days by H and E staining based assay; format: organism-based; conditions: in vivo, 504 h, dose 5-15 mg/kg, time 21 day
[2] = Tmax in Wistar rat at 5 mg/kg, ip measured upto 24 hrs by HPLC analysis; format: ADME, organism-based; conditions: in vivo
[3] = Apparent oral clearance in Wistar rat at 15 mg/kg, ip measured upto 24 hrs by HPLC analysis; format: ADME, organism-based; conditions: in vivo
4T1 [4] = assay: Antitumor activity against mouse 4T1 cells implanted in BALB/c mouse assessed as reduction in tumor volume at 5 mg/kg, ip administered 5 times a week for 21 days (reference value: 52.05+/-13.23 mm3); format: functional; conditions: time 21 day
[5] = Toxicity in BALB/c mouse implanted with mouse 4T1 cells assessed as effect on cell shape in kidney at 5 to 15 mg/kg, ip measured after 21 days by H and E staining based assay; format: organism-based; conditions: in vivo, 504 h, dose 5-15 mg/kg, time 21 day
[6] = Toxicity in BALB/c mouse implanted with mouse 4T1 cells assessed as neutrophilic infiltration in spleen at 5 to 15 mg/kg, ip measured after 21 days; format: organism-based; conditions: in vivo, 504 h, dose 5-15 mg/kg, time 21 day
4T1 [7] = assay: Antitumor activity against mouse 4T1 cells implanted in BALB/c mouse assessed as tumor growth inhibition at 15 mg/kg, ip measured on day 14; format: functional; conditions: 4T1, 336 h, time 14 day, read-out: TGI
MDA-MB-453 = assay: Cytotoxicity against human MDA-MB-453 cells assessed as inhibition of cell growth incubated for 72 hrs by MTT assay; format: functional, cell-based; conditions: MDA-MB-453, 72 h
[8] = Toxicity in BALB/c mouse implanted with mouse 4T1 cells assessed as effect on cell shape in liver at 5 to 15 mg/kg, ip measured after 21 days by H and E staining based assay; format: organism-based; conditions: in vivo, 504 h, dose 5-15 mg/kg, time 21 day
[9] = Selectivity ratio of IC50 for cytotoxicity against human HEK293 cells assessed as inhibition of cell growth to IC50 for cytotoxicity against human MCF7 cells assessed as inhibition of cell growth; format: toxicity, cell-based; conditions: HEK293 cells versus MCF7 cells, read-out: Ratio IC50
[10] = Toxicity in BALB/c mouse implanted with mouse 4T1 cells assessed as kidney fibrosis at 5 to 15 mg/kg, ip measured after 21 days; format: organism-based; conditions: in vivo, 504 h, dose 5-15 mg/kg, time 21 day
4T1 [11] = assay: Induction of apoptosis in mouse 4T1 cells at 7.72 uM incubated for 72 hrs by annexin/PI staining based flow cytometry analysis (reference value: 1.35%); format: functional
[12] = Selectivity ratio of IC50 for cytotoxicity against human HEK293 cells assessed as inhibition of cell growth to IC50 for cytotoxicity against mouse 4T1 cells assessed as inhibition of cell growth; format: toxicity, cell-based; conditions: HEK293 cells versus 4T1 cells, read-out: Ratio IC50
Histone deacetylase 2 = Histone deacetylase 2 (Homo sapiens, UniProt Q92769); assay: Inhibition of human recombinant HDAC2 at 1 uM incubated for 30 mins by fluorescence based microplate assay relative to control
[13] = AUMC (0 to infinity) in Wistar rat at 5 mg/kg, ip measured upto 24 hrs by HPLC analysis; format: ADME, organism-based; conditions: in vivo
[14] = Tmax in Wistar rat at 15 mg/kg, ip measured upto 24 hrs by HPLC analysis; format: ADME, organism-based; conditions: in vivo
4T1 [15] = assay: Antitumor activity against mouse 4T1 cells implanted in BALB/c mouse assessed as downregulation of Bcl-2 level in tumor at 5 to 15 mg/kg, ip by Western blot analysis; format: functional, organism-based; conditions: dose 5-15 mg/kg
[16] = Toxicity in BALB/c mouse implanted with mouse 4T1 cells assessed as kidney damage at 5 to 15 mg/kg, ip measured after 21 days by H and E staining based assay; format: organism-based; conditions: in vivo, 504 h, dose 5-15 mg/kg, time 21 day
[17] = AUC (0 to infinity) in Wistar rat at 15 mg/kg, ip measured upto 24 hrs by HPLC analysis; format: ADME, organism-based; set-up: dose 15 mg/kg, time < 24 hrs, route ip; conditions: in vivo
4T1 [18] = assay: Induction of apoptosis in mouse 4T1 cells assessed as cell shrinkage incubated for 72 hrs by acridine orange staining based analysis; format: functional
4T1 [19] = assay: Antitumor activity against mouse 4T1 cells implanted in BALB/c mouse assessed as reduction in Ki-67 expression in tumor tissue at 5 to 15 mg/kg, ip measured for 21 days by fluorescence based microscopic analysis; format: functional, organism-based; conditions: dose 5-15 mg/kg, time 21.0 day
[20] = Toxicity in BALB/c mouse implanted with mouse 4T1 cells assessed as liver fibrosis at 5 to 15 mg/kg, ip measured after 21 days; format: organism-based; conditions: in vivo, 504 h, dose 5-15 mg/kg, time 21 day
4T1 [21] = assay: Cell cycle arrest in mouse 4T1 cells assessed as accumulation of cells at G2/M phase at 550 nM incubated for 72 hrs by flow cytometry; format: functional
4T1 [22] = assay: In-vivo inhibition of HDAC3 in ip dosed BALB/c mouse implanted with mouse 4T1 cells assessed as hyperacetylation of H4K12 level by Western blot analysis; format: functional, organism-based; conditions: dose 5-15 mg/kg
[23] = Cmax in Wistar rat at 5 mg/kg, ip measured upto 24 hrs by HPLC analysis; format: ADME, organism-based; set-up: time < 24 hrs, dose 5 mg/kg, route ip; conditions: in vivo
4T1 [24] = assay: Antitumor activity against mouse 4T1 cells implanted in BALB/c mouse assessed as reduction in lung metastasis at 5 to 15 mg/kg, ip measured for 7 days by H and E staining based assay; format: functional; set-up: scale not given: the % may be the effect or the level left; conditions: dose 5-15 mg/kg, time 7 day
[25] = Apparent oral clearance in Wistar rat at 5 mg/kg, ip measured upto 24 hrs by HPLC analysis; format: ADME, organism-based; conditions: in vivo
Histone deacetylase 5 = Histone deacetylase 5 (Homo sapiens, UniProt Q9UQL6); assay: Inhibition of recombinant HDAC5 (unknown origin) incubated for 30 mins by fluorescence based microplate analysis
[26] = Half life in Wistar rat at 5 mg/kg, ip measured upto 24 hrs by HPLC analysis; format: ADME, organism-based; conditions: in vivo
[27] = Toxicity in BALB/c mouse implanted with mouse 4T1 cells assessed as neutrophilic infiltration in liver at 5 to 15 mg/kg, ip measured after 21 days; format: organism-based; conditions: in vivo, 504 h, dose 5-15 mg/kg, time 21 day
[28] = Apparent volume of distribution in Wistar rat at 15 mg/kg, ip measured upto 24 hrs by HPLC analysis; format: ADME, organism-based; conditions: in vivo
4T1 [29] = assay: Antitumor activity against mouse 4T1 cells implanted in BALB/c mouse assessed as tumor growth inhibition at 15 mg/kg, ip measured on day 7; format: functional; conditions: 4T1, 168 h, time 7 day, read-out: TGI
[30] = Toxicity in BALB/c mouse implanted with mouse 4T1 cells assessed as liver damage at 5 to 15 mg/kg, ip measured after 21 days by H and E staining based assay; format: organism-based; conditions: in vivo, 504 h, dose 5-15 mg/kg, time 21 day
4T1 [31] = assay: Antitumor activity against mouse 4T1 cells implanted in BALB/c mouse assessed as reduction in Ki-67 protein level in tumor at 5 to 15 mg/kg, ip by Western blot analysis; format: functional, organism-based; conditions: dose 5-15 mg/kg
[32] = Toxicity in BALB/c mouse implanted with mouse 4T1 cells assessed as effect on cell size in spleen at 5 to 15 mg/kg, ip measured after 21 days by H and E staining based assay; format: organism-based; conditions: in vivo, 504 h, dose 5-15 mg/kg, time 21 day
4T1 [33] = assay: Antitumor activity against mouse 4T1 cells implanted in BALB/c mouse assessed as tumor growth inhibition at 15 mg/kg, ip measured on day 21; format: functional; conditions: 4T1, 504 h, time 21 day, read-out: TGI
4T1 [34] = assay: Antitumor activity against mouse 4T1 cells implanted in BALB/c mouse assessed as increase in number of lung nodules at 15 mg/kg, ip measured for 7 days by fluorescence based assay; format: functional, organism-based; conditions: time 7.0 day

Histone deacetylase 5, sequence (Q9UQL6 whole entry): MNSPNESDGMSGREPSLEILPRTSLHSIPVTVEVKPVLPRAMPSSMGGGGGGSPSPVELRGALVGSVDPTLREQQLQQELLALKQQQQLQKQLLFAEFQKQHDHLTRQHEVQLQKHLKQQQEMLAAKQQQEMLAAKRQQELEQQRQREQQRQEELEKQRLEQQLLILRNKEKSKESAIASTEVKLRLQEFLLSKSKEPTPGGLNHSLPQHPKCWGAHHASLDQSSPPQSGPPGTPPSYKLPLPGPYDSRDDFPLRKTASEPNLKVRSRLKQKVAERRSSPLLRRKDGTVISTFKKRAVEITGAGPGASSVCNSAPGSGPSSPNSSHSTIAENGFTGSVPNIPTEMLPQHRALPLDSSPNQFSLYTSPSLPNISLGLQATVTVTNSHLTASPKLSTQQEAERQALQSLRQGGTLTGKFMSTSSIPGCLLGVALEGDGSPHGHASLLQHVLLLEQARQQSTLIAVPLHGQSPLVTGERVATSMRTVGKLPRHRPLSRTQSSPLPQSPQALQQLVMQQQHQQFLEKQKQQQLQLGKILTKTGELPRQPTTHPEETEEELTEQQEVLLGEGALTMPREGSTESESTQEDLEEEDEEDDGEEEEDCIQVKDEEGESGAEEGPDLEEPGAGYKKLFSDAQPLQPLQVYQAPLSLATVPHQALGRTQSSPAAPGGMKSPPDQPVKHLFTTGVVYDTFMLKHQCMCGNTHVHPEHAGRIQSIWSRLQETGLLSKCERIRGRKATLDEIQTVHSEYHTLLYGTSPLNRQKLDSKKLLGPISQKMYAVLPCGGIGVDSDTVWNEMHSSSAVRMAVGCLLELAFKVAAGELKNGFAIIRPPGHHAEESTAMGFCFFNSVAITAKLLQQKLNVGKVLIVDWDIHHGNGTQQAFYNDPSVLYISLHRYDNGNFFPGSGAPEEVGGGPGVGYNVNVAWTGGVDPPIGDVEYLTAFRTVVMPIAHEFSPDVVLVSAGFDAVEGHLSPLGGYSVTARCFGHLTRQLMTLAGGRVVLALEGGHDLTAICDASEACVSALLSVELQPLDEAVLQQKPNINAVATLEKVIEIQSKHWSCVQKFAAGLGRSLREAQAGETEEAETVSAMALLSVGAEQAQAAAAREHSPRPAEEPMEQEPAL
Histone deacetylase 2, sequence (Q92769 whole entry): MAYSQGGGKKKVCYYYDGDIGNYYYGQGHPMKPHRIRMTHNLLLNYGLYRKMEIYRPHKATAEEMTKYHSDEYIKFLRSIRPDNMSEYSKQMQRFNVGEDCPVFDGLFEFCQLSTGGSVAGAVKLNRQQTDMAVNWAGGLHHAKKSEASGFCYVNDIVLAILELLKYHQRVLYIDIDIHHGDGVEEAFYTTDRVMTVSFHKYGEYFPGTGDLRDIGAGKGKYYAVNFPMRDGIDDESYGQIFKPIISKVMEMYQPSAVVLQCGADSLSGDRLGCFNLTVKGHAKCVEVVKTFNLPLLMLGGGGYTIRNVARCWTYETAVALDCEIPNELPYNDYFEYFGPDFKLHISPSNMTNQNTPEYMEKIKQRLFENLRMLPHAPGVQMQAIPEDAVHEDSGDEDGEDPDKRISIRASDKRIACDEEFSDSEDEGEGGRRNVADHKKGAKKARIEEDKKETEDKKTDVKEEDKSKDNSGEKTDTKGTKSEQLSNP

Q: Which results are given for `CCCNNC(=O)c1cnc(NCc2ccc(OC)cc2)cn1`?
A: Activity [1]: Non-Toxic; Tmax [2]: 2 h; CL/F [3]: 1.3 (mg/kg)/(ug/ml).hr; Activity (4T1 [4]): 185.23 mm3; Activity [5]: Non-Toxic; Activity [6]: Non-Toxic; inhibition in vivo at 15 mg/kg (4T1 [7]): 97.3%; pIC50 (MDA-MB-453): 5.76; Activity [8]: Non-Toxic; selectivity ratio [9]: 286; Activity [10]: Non-Toxic; Activity (4T1 [11]): 46.9%; selectivity ratio [12]: 286; inhibition (Histone deacetylase 2): < 17%; AUMC [13]: 29.08 ug/ml.hr^2; Tmax [14]: 2 h; Activity (4T1 [15]): Active; Activity [16]: Non-Toxic; AUC(0-inf) [17]: 20.6 µg·h/mL; Activity (4T1 [18]): Active; Activity (4T1 [19]): Active; Activity [20]: Non-Toxic; Activity (4T1 [21]): 52.6%; inhibition (4T1 [22]): Dose-Dependent Effect; Cmax [23]: 1.11 µg/mL; Activity (4T1 [24]): ~90%; CL/F [25]: 1.15 (mg/kg)/(ug/ml).hr; pIC50 (Histone deacetylase 5): < 4.70; half-life [26]: 7.19 h; Activity [27]: Non-Toxic; Vz/F [28]: 12.57 (mg/kg)/(ug/ml); inhibition in vivo at 15 mg/kg (4T1 [29]): 84.9%; Activity [30]: Non-Toxic; Activity (4T1 [31]): Active; Activity [32]: Non-Toxic; inhibition in vivo at 15 mg/kg (4T1 [33]): 97.9%; Activity (4T1 [34]): Active
